Experimental data taken from patent publication US20050208000A1, “Compositions and methods for prevention of photoaging” (priority 1999, published 2005).

Tested on: human elastin promoter
Assay: Transgenic mouse model of photoaging: human elastin promoter/CAT reporter activity in skin after solar simulating radiation
Type: in vivo, mice
Excerpt: A transgenic mouse model which contains the human elastin promoter linked to a chloramphenicol acetyltransferase (CAT) reporter gene for testing compounds that may inhibit cutaneous photodamage has been developed. These mice express human elastin promoter activity in a tissue-specific and developmentally regulated manner. […] In addition, quantitative data can be obtained after only a single exposure to ultraviolet radiation. A test compound is applied to the skin of a transgenic mouse capable of expressing the human elastin promoter. The transgenic mouse is then exposed to solar radiation and human elastin promoter activity in the mouse is determined. The human elastin promoter activity is then compared to that in transgenic mice also exposed to an equivalent dose of solar radiation which were not treated with the test compound to determine whether or not the test compound provided protection against the solar radiation. […]
Using this transgenic mouse line, the ability of alpha 1-antitrypsin to inhibit the effects of solar radiation on human elastin promoter activity was determined. […]
To measure the expression of the human elastin promoter/CAT reporter gene construct in the skin of transgenic, mice and in fibroblast cultures established from these animals, CAT activity was determined. […]

What does the source list for alpha 1-antitrypsin?
reduction in CAT activity (topical 20 mg/ml alpha 1-antitrypsin in goat's milk versus goat's milk alone, 20 MEDs SSR on three consecutive days): 69%; Relative increase in CAT activity (mean+S.D.) (transgenic mice, topical application to the back about 15 min before 20 MEDs SSR, three consecutive days, skin harvested 24 hours after third phototreatment, baseline of unirradiated untreated control mice standardized to one): 4.5+1.0
